Assay results taken from article PMC6099557, “Cholinesterase Inhibition Activity, Alkaloid Profiling and Molecular Docking of Chilean Rhodophiala (Amaryllidaceae)” (Molecules : A Journal of Synthetic Chemistry and Natural …, 2018).
Converted amounts (≈) assume the structure as drawn. Read-outs that look alike come from different tables or passages of the source.

Columns and labels:
[1] = target: T1, AchE from Electrophorus electricus (Electrophorus electricus, UniProt O42275); assay: biochemical; details: AChE inhibitory activity IC50, single alkaloids and reference galanthamine; electric eel AChE
T1 construct: purchased Merck, Darmstadt, Germany
T1 sequence (O42275 24-633): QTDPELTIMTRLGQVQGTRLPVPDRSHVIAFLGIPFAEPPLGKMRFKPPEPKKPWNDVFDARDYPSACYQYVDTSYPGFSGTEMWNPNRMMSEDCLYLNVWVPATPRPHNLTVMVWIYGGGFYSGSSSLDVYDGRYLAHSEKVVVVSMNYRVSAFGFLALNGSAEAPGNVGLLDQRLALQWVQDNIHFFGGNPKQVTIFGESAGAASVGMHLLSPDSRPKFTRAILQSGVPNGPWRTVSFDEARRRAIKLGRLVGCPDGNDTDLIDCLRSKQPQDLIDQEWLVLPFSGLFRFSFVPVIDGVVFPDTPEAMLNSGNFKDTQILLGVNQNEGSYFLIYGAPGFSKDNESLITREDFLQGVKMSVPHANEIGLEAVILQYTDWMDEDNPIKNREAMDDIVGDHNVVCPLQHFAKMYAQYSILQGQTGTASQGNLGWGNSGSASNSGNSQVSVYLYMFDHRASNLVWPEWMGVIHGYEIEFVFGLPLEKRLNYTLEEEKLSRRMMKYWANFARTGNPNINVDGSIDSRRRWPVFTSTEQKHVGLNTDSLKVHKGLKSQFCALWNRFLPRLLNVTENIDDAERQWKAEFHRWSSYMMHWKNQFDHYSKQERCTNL
Method: (§1) Cholinesterase inhibitory activities were determined according to [35] with some modifications. Stock solutions with 518U of AchE from Electrophorus electricus (Merck, Darmstadt, Germany) and BuChE from equine serum (Merck, Darmstadt, Germany), respectively, were prepared and kept at −20 °C. Acetylthiocholine iodide (ATCI), S-butyrylthiocholine iodide (BTCI) and 5,5′-dithiobis (2-nitrobenzoic acid) (DTNB) were obtained from Merck (Darmstadt, Germany). Fifty microliters of AChE or BuChE (both enzymes used at 6.24 U) in phosphate buffer (8 mM K2HPO4, 2.3 mM NaH2PO4, 0.15 NaCl, pH 7.5) and 50 μL of the sample dissolved in the same buffer were added to the wells. The plates were incubated for 30 min at room temperature. Then, 100 μL of the substrate solution (0.1 M Na2HPO4, […], and 0.6 mM ATCI or 0.24 mM BTCI in Millipore water, pH 7.5) was added. After 10 min, the absorbance was read at 405 nm in a Labsystem microplate reader (Thermo Fischer, Waltham, MA, USA). Enzyme activity was calculated as percent compared to a control using buffer without any inhibitor. […] In a first step, samples were assessed at 10, 100 and 200 μg/mL towards both enzymes. […] The cholinesterase inhibitory data were analyzed with the software Microsoft Office Excel 2010 (Microsoft, Redmond, WA, USA).

BuChE from equine serum = target: T2, BuChE from equine serum (Equus caballus, UniProt P81908); assay: biochemical
T2 construct: BuChE from equine serum (Merck, Darmstadt, Germany); purchased Merck, Darmstadt, Germany; host or cells: equine serum
T2 sequence (P81908 whole entry): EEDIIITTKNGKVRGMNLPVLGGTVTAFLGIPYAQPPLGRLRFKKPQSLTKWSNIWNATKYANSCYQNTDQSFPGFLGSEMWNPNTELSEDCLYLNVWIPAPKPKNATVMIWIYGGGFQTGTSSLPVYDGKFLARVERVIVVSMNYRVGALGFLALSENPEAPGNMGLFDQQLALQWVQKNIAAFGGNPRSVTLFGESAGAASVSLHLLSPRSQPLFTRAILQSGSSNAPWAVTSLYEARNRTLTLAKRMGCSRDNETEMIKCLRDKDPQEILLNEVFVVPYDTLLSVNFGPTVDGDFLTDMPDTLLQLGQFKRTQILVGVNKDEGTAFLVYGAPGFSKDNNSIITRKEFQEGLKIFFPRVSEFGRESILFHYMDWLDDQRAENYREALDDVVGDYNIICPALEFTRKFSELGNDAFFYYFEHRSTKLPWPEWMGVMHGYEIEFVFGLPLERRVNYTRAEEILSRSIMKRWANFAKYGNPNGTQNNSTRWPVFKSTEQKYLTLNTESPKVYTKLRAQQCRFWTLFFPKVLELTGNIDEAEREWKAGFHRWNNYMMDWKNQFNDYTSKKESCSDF
Method: as §1

human serum BuChE = details: tested 0.5–500 μg/mL, cited from earlier work
human erythrocye AChE = details: human erythrocyte AChE, tested 0.5–500 μg/mL, cited from earlier work
P. aeruginosa ATCC 27853 = details: cited from earlier work
S. aureus ATCC 6538 = details: cited from earlier work
[2] = system: multi-drug resistant breast cell line NCLADR; details: montanine at 2.5 μg/mL; cited from earlier work
E. coli ATCC 24922 = details: cited from earlier work
[3] = system: panel of eight human cancer cell lines; details: cited from earlier work
[4] = BuChE inhibitory activity IC50, single alkaloids and reference galanthamine
[5] = single alkaloids and reference galanthamine, read-out: BuChE inhibitory activity IC50 (converted)

SMILES	IC50 (BuChE from equine serum; [4])	Activity on human BuChE (in words) (human serum BuChE)	Activity on human AChE (in words) (human erythrocye AChE)	further results
COc1cc2c(cc1O)C13CCC(O)CC1N(CC3)C2 (centres unmarked) [deacetylcantabricine (17), deacetylcantabricine]	> 726 µM			IC50 [1]: > 726 µM
OC1C=CC23c4cc5c(cc4CN(CC2O)C3C1)OCO5 (centres unmarked) [11-hydroxyvittatine (20a), 11-hydroxyvittatine]				Activity on human BuChE (in words) (human serum BuChE; listed as 11-hydroxyvitattine): not active; Activity on human AChE (in words) (human erythrocye AChE; listed as 11-hydroxyvitattine): not active; IC50 (BuChE from equine serum; [5]): > 696 µM
COc1cc2c(cc1O)CN1CC[C@@]23C=C[C@@H](O)C[C@H]13 [8-O-demethylmaritidine (16), 8-O-demethylmaritidine]	468 µM	inactive	presented activity	IC50 [1]: 414 µM
COC1C=CC23c4cc5c(cc4CN(CC2O)C3C1)OCO5 (centres unmarked) [haemanthamine (18a), haemanthamine]	> 664 µM	not active	not active	
O[C@H]1[C@H]2c3cc4c(cc3CN3CCC(=C[C@@H]1O)[C@H]23)OCO4 [lycorine (9), lycorine]	> 696 µM	not active	not active	
OC1C=CC23c4cc5c(cc4CN(CC2O)C3C1)OCO5 (centres unmarked) [hamayne (20b), hamayne]		inactive	presented activity	IC50 (BuChE from equine serum; [5]): 168 µM
CO[C@H]1C=C2[C@H]3C[N@@](Cc4cc5c(cc43)OCO5)[C@H]2C[C@@H]1O [montanine]				MIC (P. aeruginosa ATCC 27853): 20 µg/mL (≈ 66.4 µM); MIC (S. aureus ATCC 6538): 5 µg/mL (≈ 16.6 µM); Activity on NCLADR compared with doxorubicine [2]: more active than doxorubicine; MIC (E. coli ATCC 24922): 5 µg/mL (≈ 16.6 µM); Activity towards a panel of eight human cancer cell lines [3]: showed activity
